{"source": "patent US9486506B2", "about": "(Novo Nordisk A/S, priority 2011, dated 2016)", "target": "T1, glucagon receptor (Homo sapiens, UniProt P47871)", "T1 construct": "expressed in transfected cells", "T1 sequence (P47871 26-477)": "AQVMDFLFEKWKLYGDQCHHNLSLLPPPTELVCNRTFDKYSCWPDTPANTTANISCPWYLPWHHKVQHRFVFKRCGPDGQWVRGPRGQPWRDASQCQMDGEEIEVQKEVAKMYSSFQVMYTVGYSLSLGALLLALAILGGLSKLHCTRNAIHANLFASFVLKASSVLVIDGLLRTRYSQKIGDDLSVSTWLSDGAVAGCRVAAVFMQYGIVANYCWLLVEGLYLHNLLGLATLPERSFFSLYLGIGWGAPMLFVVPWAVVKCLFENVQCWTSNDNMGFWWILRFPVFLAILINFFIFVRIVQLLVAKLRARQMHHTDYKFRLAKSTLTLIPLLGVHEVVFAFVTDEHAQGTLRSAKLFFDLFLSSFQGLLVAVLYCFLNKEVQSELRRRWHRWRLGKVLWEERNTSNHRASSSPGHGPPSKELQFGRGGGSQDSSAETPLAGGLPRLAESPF", "test": "Assay (I) Glucagon activity (cAMP biosensor, FLIPR)", "format": "cell-based", "note": "Numbered stars: 1 amine (or outer) side, 2 acyl side, 3 side chain; on linkers, the order of the positions; unused ones are H or OH. Side chains are listed from the residue outwards. Peptide text beside a SMILES is read from it. * marks the point of attachment. C18 diacid = O=C(O)CCCCCCCCCCCCCCCCC(=O)*; γGlu = O=C(O)[C@H](CCC(=O)[*:2])N[*:1]; AEEA = NCCOCCOCC(=O)O", "data": [{"smiles": "CC(C)C[C@H](NC(=O)[C@H](CC(=O)O)NC(=O)[C@H](CC(C)C)NC(=O)[C@H](Cc1ccc(O)cc1)NC(=O)[C@H](CCCNC(=N)N)NC(=O)[C@H](CO)NC(=O)[C@H](Cc1ccc(O)cc1)NC(=O)[C@H](CC(=O)O)NC(=O)[C@H](CO)NC(=O)[C@@H](NC(=O)[C@H](Cc1ccccc1)NC(=O)[C@@H](NC(=O)CNC(=O)[C@H](CCC(N)=O)NC(=O)[C@H](CO)NC(=O)[C@@H](N)Cc1c[nH]cn1)[C@@H](C)O)[C@@H](C)O)C(=O)N[C@@H](CCCNC(=N)N)C(=O)N[C@@H](CCCNC(=N)N)C(=O)N[C@@H](C)C(=O)N[C@@H](CCC(N)=O)C(=O)N[C@@H](CC(=O)O)C(=O)N[C@@H](Cc1ccccc1)C(=O)N[C@H](C(=O)N[C@@H](CCCCNC(=O)CC[C@H](NC(=O)CC[C@H](NC(=O)COCCOCCNC(=O)COCCOCCNC(=O)CC[C@H](NC(=O)CCCCCCCCCCCCCCCCC(=O)O)C(=O)O)C(=O)O)C(=O)O)C(=O)N[C@@H](Cc1c[nH]c2ccccc12)C(=O)N[C@@H](CC(C)C)C(=O)N[C@@H](CCC(=O)O)C(=O)N[C@@H](CO)C(=O)N[C@H](C(=O)O)[C@@H](C)O)C(C)C", "note": "[Example 47, N^ε24-[(4S)-4-carboxy-4-[[(4S)-4-carboxy-4-[[2-[2-[2-[[2-[2-[2-[[(4S)-4-carboxy-4-(17-carboxyheptadecanoylamino)butanoyl]amino]ethoxy]ethoxy]acetyl]amino]ethoxy]ethoxy]acetyl]amino]butanoyl]amino]butanoyl]-[Arg12,Leu16,Lys24,Glu27,Ser28]-Glucagon] (H-HSQGTFTSDYSRYLDLRRAQDFVK([γGlu-γGlu-AEEA-AEEA-γGlu-C18 diacid])WLEST-OH)", "values": [{"measurement": "EC50", "result": 0.136, "unit": "nM"}]}, {"smiles": "CC(C)C[C@H](NC(=O)[C@H](CC(=O)O)NC(=O)[C@H](CC(C)C)NC(=O)[C@H](Cc1ccc(O)cc1)NC(=O)[C@H](CCCNC(=N)N)NC(=O)[C@H](CO)NC(=O)[C@H](Cc1ccc(O)cc1)NC(=O)[C@H](CC(=O)O)NC(=O)[C@H](CO)NC(=O)[C@@H](NC(=O)[C@H](Cc1ccccc1)NC(=O)[C@@H](NC(=O)CNC(=O)[C@H](CCC(N)=O)NC(=O)[C@H](CO)NC(=O)[C@@H](N)Cc1c[nH]cn1)[C@@H](C)O)[C@@H](C)O)C(=O)N[C@@H](CCCNC(=N)N)C(=O)N[C@@H](CCCNC(=N)N)C(=O)N[C@@H](C)C(=O)N[C@@H](CCC(N)=O)C(=O)N[C@@H](CC(=O)O)C(=O)N[C@@H](Cc1ccccc1)C(=O)N[C@H](C(=O)N[C@@H](CCCCNC(=O)CC[C@H](NC(=O)CC[C@H](NC(=O)COCCOCCNC(=O)COCCOCCNC(=O)CC[C@H](NC(=O)CCCCCCCCCCCCCCCCC(=O)O)C(=O)O)C(=O)O)C(=O)O)C(=O)N[C@@H](Cc1c[nH]c2ccccc12)C(=O)N[C@@H](CC(C)C)C(=O)N[C@@H](CC(C)C)C(=O)N[C@@H](CCC(N)=O)C(=O)N[C@H](C(=O)O)[C@@H](C)O)C(C)C", "note": "[Example 48, N^ε24-[(4S)-4-carboxy-4-[[(4S)-4-carboxy-4-[[2-[2-[2-[[2-[2-[2-[[(4S)-4-carboxy-4-(17-carboxyheptadecanoylamino)butanoyl]amino]ethoxy]ethoxy]acetyl]amino]ethoxy]ethoxy]acetyl]amino]butanoyl]amino]butanoyl]-[Arg12,Leu16,Lys24,Leu27,Gln28]-Glucagon] (H-HSQGTFTSDYSRYLDLRRAQDFVK([γGlu-γGlu-AEEA-AEEA-γGlu-C18 diacid])WLLQT-OH)", "values": [{"measurement": "EC50", "result": 0.204, "unit": "nM"}]}, {"smiles": "CC(C)C[C@H](NC(=O)[C@H](Cc1ccc(O)cc1)NC(=O)[C@H](CCCNC(=N)N)NC(=O)[C@H](CO)NC(=O)[C@@H](NC(=O)[C@H](CC(=O)O)NC(=O)[C@H](CO)NC(=O)[C@@H](NC(=O)[C@H](Cc1ccccc1)NC(=O)[C@@H](NC(=O)CNC(=O)[C@H](CCC(N)=O)NC(=O)[C@H](CO)NC(=O)[C@@H](N)Cc1c[nH]cn1)[C@@H](C)O)[C@@H](C)O)C(C)C)C(=O)N[C@@H](CCC(=O)O)C(=O)N[C@@H](CO)C(=O)N[C@@H](CCCNC(=N)N)C(=O)N[C@@H](CCCNC(=N)N)C(=O)N[C@@H](C)C(=O)N[C@@H](CCC(N)=O)C(=O)N[C@@H](CCC(=O)O)C(=O)N[C@@H](Cc1ccccc1)C(=O)N[C@H](C(=O)N[C@@H](CCCCNC(=O)CC[C@H](NC(=O)CC[C@H](NC(=O)COCCOCCNC(=O)COCCOCCNC(=O)CC[C@H](NC(=O)CCCCCCCCCCCCCCCCC(=O)O)C(=O)O)C(=O)O)C(=O)O)C(=O)N[C@@H](Cc1c[nH]c2ccccc12)C(=O)N[C@@H](CC(C)C)C(=O)N[C@@H](CCC(=O)O)C(=O)N[C@@H](CO)C(=O)N[C@H](C(=O)O)[C@@H](C)O)C(C)C", "note": "[Example 54, N^ε24-[(4S)-4-carboxy-4-[[(4S)-4-carboxy-4-[[2-[2-[2-[[2-[2-[2-[[(4S)-4-carboxy-4-(17-carboxyheptadecanoylamino)butanoyl]amino]ethoxy]ethoxy]acetyl]amino]ethoxy]ethoxy]acetyl]amino]butanoyl]amino]butanoyl]-[Val10,Arg12,Glu15,Glu21,Lys24,Glu27,Ser28]-Glucagon] (H-HSQGTFTSDVSRYLESRRAQEFVK([γGlu-γGlu-AEEA-AEEA-γGlu-C18 diacid])WLEST-OH)", "values": [{"measurement": "EC50", "result": 1.63, "unit": "nM"}]}, {"smiles": "CC(C)C[C@H](NC(=O)[C@H](Cc1ccc(O)cc1)NC(=O)[C@H](CCCNC(=N)N)NC(=O)[C@H](CO)NC(=O)[C@H](Cc1ccc(O)cc1)NC(=O)[C@H](CC(=O)O)NC(=O)[C@H](CO)NC(=O)[C@@H](NC(=O)[C@H](Cc1ccccc1)NC(=O)[C@@H](NC(=O)CNC(=O)[C@H](CCC(N)=O)NC(=O)[C@H](CO)NC(=O)[C@@H](N)Cc1c[nH]cn1)[C@@H](C)O)[C@@H](C)O)C(=O)N[C@@H](CCC(=O)O)C(=O)N[C@@H](CO)C(=O)N[C@@H](CCCNC(=N)N)C(=O)N[C@@H](CCCNC(=N)N)C(=O)N[C@@H](C)C(=O)N[C@@H](CCC(N)=O)C(=O)N[C@@H](CCC(=O)O)C(=O)N[C@@H](Cc1ccccc1)C(=O)N[C@H](C(=O)N[C@@H](CCCCNC(=O)CC[C@H](NC(=O)CC[C@H](NC(=O)COCCOCCNC(=O)COCCOCCNC(=O)CC[C@H](NC(=O)CCCCCCCCCCCCCCCCC(=O)O)C(=O)O)C(=O)O)C(=O)O)C(=O)N[C@@H](Cc1c[nH]c2ccccc12)C(=O)N[C@@H](CC(C)C)C(=O)N[C@@H](CCC(=O)O)C(=O)N[C@@H](CO)C(=O)N[C@H](C(=O)O)[C@@H](C)O)C(C)C", "note": "[Example 55, N^ε24-[(4S)-4-carboxy-4-[[(4S)-4-carboxy-4-[[2-[2-[2-[[2-[2-[2-[[(4S)-4-carboxy-4-(17-carboxyheptadecanoylamino)butanoyl]amino]ethoxy]ethoxy]acetyl]amino]ethoxy]ethoxy]acetyl]amino]butanoyl]amino]butanoyl]-[Arg12,Glu15,Glu21,Lys24,Glu27,Ser28]-Glucagon] (H-HSQGTFTSDYSRYLESRRAQEFVK([γGlu-γGlu-AEEA-AEEA-γGlu-C18 diacid])WLEST-OH)", "values": [{"measurement": "EC50", "result": 1.09, "unit": "nM"}]}, {"smiles": "CC(C)C[C@H](NC(=O)[C@H](Cc1ccc(O)cc1)NC(=O)[C@H](CCCCN)NC(=O)[C@H](CO)NC(=O)[C@H](Cc1ccc(O)cc1)NC(=O)[C@H](CC(=O)O)NC(=O)[C@H](CO)NC(=O)[C@@H](NC(=O)[C@H](Cc1ccccc1)NC(=O)[C@@H](NC(=O)CNC(=O)[C@H](CCC(N)=O)NC(=O)[C@H](CO)NC(=O)[C@@H](N)Cc1c[nH]cn1)[C@@H](C)O)[C@@H](C)O)C(=O)N[C@@H](CCC(=O)O)C(=O)N[C@@H](CO)C(=O)N[C@@H](CCCNC(=N)N)C(=O)N[C@@H](CCCNC(=N)N)C(=O)N[C@@H](C)C(=O)N[C@@H](CCC(N)=O)C(=O)N[C@@H](CC(=O)O)C(=O)N[C@@H](Cc1ccccc1)C(=O)N[C@H](C(=O)N[C@@H](CCCCNC(=O)CC[C@H](NC(=O)CC[C@H](NC(=O)COCCOCCNC(=O)COCCOCCNC(=O)CC[C@H](NC(=O)CCCCCCCCCCCCCCCCC(=O)O)C(=O)O)C(=O)O)C(=O)O)C(=O)N[C@@H](Cc1c[nH]c2ccccc12)C(=O)N[C@@H](CC(C)C)C(=O)N[C@@H](CCC(=O)O)C(=O)N[C@@H](CO)C(=O)N[C@H](C(=O)O)[C@@H](C)O)C(C)C", "note": "[Example 59, N^ε24-[(4S)-4-carboxy-4-[[(4S)-4-carboxy-4-[[2-[2-[2-[[2-[2-[2-[[(4S)-4-carboxy-4-(17-carboxyheptadecanoylamino)butanoyl]amino]ethoxy]ethoxy]acetyl]amino]ethoxy]ethoxy]acetyl]amino]butanoyl]amino]butanoyl]-[Glu15,Lys24,Glu27,Ser28]-Glucagon]", "values": [{"measurement": "EC50", "result": 0.682, "unit": "nM"}]}, {"smiles": "CC(C)C[C@H](NC(=O)[C@H](Cc1ccc(O)cc1)NC(=O)[C@H](CCCCN)NC(=O)[C@H](CO)NC(=O)[C@H](Cc1ccc(O)cc1)NC(=O)[C@H](CC(=O)O)NC(=O)[C@H](CO)NC(=O)[C@@H](NC(=O)[C@H](Cc1ccccc1)NC(=O)[C@@H](NC(=O)CNC(=O)[C@H](CCC(N)=O)NC(=O)[C@H](CO)NC(=O)[C@@H](N)Cc1c[nH]cn1)[C@@H](C)O)[C@@H](C)O)C(=O)N[C@@H](CCC(=O)O)C(=O)N[C@@H](CO)C(=O)N[C@@H](CCCNC(=N)N)C(=O)N[C@@H](CCCNC(=N)N)C(=O)N[C@@H](C)C(=O)N[C@@H](CCC(N)=O)C(=O)N[C@@H](CC(=O)O)C(=O)N[C@@H](Cc1ccccc1)C(=O)N[C@H](C(=O)N[C@@H](CCCCNC(=O)CC[C@H](NC(=O)CC[C@H](NC(=O)COCCOCCNC(=O)COCCOCCNC(=O)CC[C@H](NC(=O)CCCCCCCCCCCCCCCCC(=O)O)C(=O)O)C(=O)O)C(=O)O)C(=O)N[C@@H](Cc1c[nH]c2ccccc12)C(=O)N[C@@H](CC(C)C)C(=O)N[C@@H](CC(C)C)C(=O)N[C@@H](CCC(N)=O)C(=O)N[C@H](C(=O)O)[C@@H](C)O)C(C)C", "note": "[Example 60, N^ε24-[(4S)-4-carboxy-4-[[(4S)-4-carboxy-4-[[2-[2-[2-[[2-[2-[2-[[(4S)-4-carboxy-4-(17-carboxyheptadecanoylamino)butanoyl]amino]ethoxy]ethoxy]acetyl]amino]ethoxy]ethoxy]acetyl]amino]butanoyl]amino]butanoyl]-[Glu15,Lys24,Leu27,Gln28]-Glucagon]", "values": [{"measurement": "EC50", "result": 0.517, "unit": "nM"}]}]}
